According to PMC5059467, “Anti-tubulin drugs conjugated to anti-ErbB antibodies selectively radiosensitize” (Nature Communications, 2016):
pIC50: −log10 of the molar value. Square brackets hold non-standard residues; d marks the D form. Peptide text beside a SMILES is read from it. * marks the point of attachment. Dolaproine = CO[C@@H]([C@@H]1CCCN1)[C@@H](C)C(=O)O; Dil = CC[C@H](C)[C@H](NC)[C@@H](CC(=O)O)OC; X1 = C[C@@H](N*)[C@@H](O)c1ccccc1; NMeV = CN[C@H](C(=O)O)C(C)C

Legend:
[1] = design: method as in PMID 25681274; settings: cited from earlier work
OE19 cells [2] = experiment: Neutral comet assay after IR, OE19 cells; type: cell-based, human
Description: (§1) Cells were collected 15 min post IR, suspended in agarose gel and lysed per assay directions (Trevigen). Samples underwent electrophoresis under neutral conditions and were then stained with Sybr Green. Comet tails were counted in multiple fields (>60 cells per sample) and analysed using CometScore (TriTek Corp). Comet tail length was normalized to vehicle-treated, non-irradiated cells.

CALU3 cells = experiment: Neutral comet assay after IR, CALU3 cells; type: cell-based, human; settings: 2 nM overnight, 6 Gy, compared with vehicle or 20 nM antibody
Description: as §1

CAL-27 tumour xenografts = experiment: CAL-27 tumour xenograft growth with or without IR; type: in vivo, mice; settings: Fig 4f, 0.5 nmol cetuximab or C-MMAE, 2 nmol free MMAE on day 0
Description: (§2) CAL-27, OE19, NCI N87 and HCT116 tumour xenografts were established and tumour growth was measured with digital calipers. Tumour volume was measured blindly to treatment group and calculated using the formula as ½ × length × width^2. Mice were randomized into groups once the average tumour volume reached >100 mm^3. Mice were assigned to indicated groups in ‘Results'. […] For irradiated mice, the tumour-bearing hindlimbs were focally irradiated while the remainder of the mouse was shielded from IR with custom designed lead blocking >95% of the dose as verified by dosimeters placed on the mouse. […] To prevent unnecessary morbidity, mice were killed if tumour length exceeded 15 mm per protocol. Nonlinear regression least squares fit was used to calculate tumour volume doubling times. […] To minimize the number of mice used, tumours were grown in the bilateral flanks.

CAL-27 cells [3] = experiment: Cell cycle profile (propidium iodide, flow cytometry), CAL-27 cells; type: cell-based, human; settings: overnight treatment
Description: (§3) Cells were treated with RNAse, stained with propidium iodide (PI) and analysed by FACS using FloJo software.

OE19 cells [4] = experiment: Cell cycle profile (propidium iodide, flow cytometry), OE19 cells; type: cell-based, human; settings: overnight treatment
Description: as §3

CAL-27 cells [5] = experiment: Clonogenic cell survival (SF2), CAL-27 cells; type: cell-based, human; settings: compared with vehicle
Description: Following IR, cells were counted, re-plated at varying cell numbers in drug-free media. […] Surviving fraction at 2 Gy (SF2) was calculated as the fraction of cells surviving 2 Gy compared with non-irradiated cells.

HCT116 cells [6] = experiment: Cell cycle profile (propidium iodide, flow cytometry), HCT116 cells; type: cell-based, human; settings: overnight treatment
Description: as §3

[7] = system: cell lines irrespective of HER2 expression; experiment: Alamar blue cell viability, cell lines irrespective of HER2 expression; type: cell-based, human; settings: fairly consistent across cell lines irrespective of HER2 expression; 72–96 h
HCT116 cells [8] = experiment: Clonogenic cell survival (SF2), HCT116 cells; type: cell-based, human; settings: 5 nM overnight then 2 Gy, compared with vehicle
Description: Following IR, cells were counted, re-plated at varying cell numbers in drug-free media. 10–14 days after initial seeding formed colonies were methanol fixed, stained with crystal violet and counted. Surviving fraction at 2 Gy (SF2) was calculated as the fraction of cells surviving 2 Gy compared with non-irradiated cells.

[9] = system: HER2+ and HER2− cell lines; experiment: Neutral comet assay after IR, HER2+ and HER2− cell lines; type: cell-based, human; settings: 20 nM overnight, 2 Gy
Description: as §1

CAL-27 cells [10] = system: CAL-27 cells
Description: (§4) Alamar Blue (resazurin) was added to the cells and allowed to incubate for 2–4 h at 37 °C. Plates were analysed using a plate reader with fluorescence measured at 560 nm.

OE19 tumour xenografts = experiment: OE19 tumour xenograft growth with or without IR; type: in vivo, mice; settings: for Tumour doubling time in days (mean, 95% CI): OE19 (HER2+)
Description: as §2

OE19 tumours = experiment: Immunohistochemistry of OE19 tumour xenografts (pS10 Histone H3, cleaved caspase 3); type: in vivo, mice; settings: tumours harvested 48 h after drug
Description: Tissue sections were cut from blocks of formalin-fixed paraffin embedded xenografts. Four micron thick tissue sections were stained with antibodies to phospho-histone H3 (pH3, Abcam, catalogue number ab32107) and cleaved caspase-3 (ClC3, Cell Signaling Technology, catalogue number 9661) and used at dilutions of 1:300 and 1:900, respectively. Slides were stained on a Ventana Discovery Ultra (Ventana Medical Systems, Tucson, AZ, USA). Antigen retrieval was performed using CC1 for 24–40 min at 95 °C. The primary antibodies were incubated on the sections for 1 h at 37 °C. Primary antibodies were visualized used DAB as a chromagen using the UltraMap system (Ventana Medical systems) followed by hematoxylin as a counterstain. Slides were rinsed, dehydrated through alcohol and xylene and coverslipped.
Immunostained slides were scanned using an Axio Scan.Z1 (Zeiss; Oberkochen, Germany). […] Whole-slide images were imported into Definiens Software for quantitative analysis (Definiens; Munich, Germany). […] For analysis of pH3 (a nuclear stain), the total number of nuclei and the total number of nuclei showing DAB staining (pH3 positive cells) were recorded within each ROI. The percent of positive nuclei was then calculated for each sample. For analysis of ClC3 (a cytoplasmic stain), mean DAB chromagen intensity was measured and calculated within the ROI for each sample.

NCI N87 cells = settings: read-out: IC50 (cell viability); HER2+ NCI N87 (gastric cancer); 72–96 h
Description: as §4

HCT116 cells [11] = settings: read-out: IC50 (cell viability); HER2- HCT116; 72–96 h
Description: as §4

OE19 cells [12] = experiment: Alamar blue cell viability, OE19 cells; type: cell-based, human; settings: HER2+ OE19; 72–96 h
HCT116 tumour xenografts = experiment: HCT116 tumour xenograft growth with or without IR; type: in vivo, mice; settings: for Tumour doubling time in days (mean, 95% CI): HCT116 (HER2−)
Description: as §2

[13] = system: NCI N87 tumour xenografts; experiment: NCI N87 tumour xenograft growth with or without IR; type: in vivo, mice; settings: for Tumour doubling time in days (mean, 95% CI): NCI N87 (HER2+)
Description: as §2

[14] = 0.25 nmol (∼1.9 mg kg^−1) day 0, 2.5 Gy days 1, 2 and 3
[15] = 0.25 nmol T-DM1 i.v. day 0, +IR 2.5 Gy on days 1, 2 and 3, extrapolated

Compound: CC[C@H](C)[C@@H]([C@@H](CC(=O)N1CCC[C@H]1[C@H](OC)[C@@H](C)C(=O)N[C@H](C)[C@@H](O)c1ccccc1)OC)N(C)C(=O)[C@@H](NC(=O)[C@@H](NC)C(C)C)C(C)C [MMAE, monomethyl auristatin E] (H-[NMeV]V[Dil][Dolaproine]-X1)
- concentration level effective as radiosensitizer [1]: single nM level
- effect on IR induced comet tail length (OE19 cells [2]; 2 nM overnight, 6 Gy, compared with vehicle, 20 nM antibody or 2 nM C-MMAE): further increased comet tail length
- effect on IR induced comet tail length (CALU3 cells): increased comet tail length to a similar degree
- Mean Diff. Control vs. treatment + IR (Tukey's multiple comparisons, tumour volume) (CAL-27 tumour xenografts; day 35, + IR 3 Gy on days 1 and 2): 246.7
- Mean Diff. Control vs. treatment (Tukey's multiple comparisons, tumour volume) (CAL-27 tumour xenografts; day 35, no IR): 272
- cell cycle profile (G2/M) (CAL-27 cells [3]): accumulating in G2/M
- cell cycle profile (G2/M) (OE19 cells [4]): accumulating in G2/M
- surviving fraction following 2 Gy (SF2) (CAL-27 cells [5]; drug overnight then 2 Gy): decreased

Compound: COc1cc2cc(c1Cl)N(C)C(=O)C[C@H](OC(=O)[C@H](C)N(C)C(=O)CCS)[C@]1(C)O[C@H]1[C@H](C)[C@@H]1C[C@@](O)(NC(=O)O1)[C@H](OC)/C=C/C=C(\C)C2 [mertansine]
- cell cycle profile (G2/M) (HCT116 cells [6]): increased the accumulation
- pIC50 [7]: ~8.00
- surviving fraction following 2 Gy (SF2) (HCT116 cells [8]): decreased further
- radiosensitization (IR induced DNA double-strand breaks, comet tail length) [9]: radiosensitized by increasing IR induced DNA double-strand breaks in both HER2+ and HER2− cell lines
- cell cycle profile (G2/M) (OE19 cells [4]): increased the accumulation
- surviving fraction following 2 Gy (SF2) (CAL-27 cells [5]; 5 nM mertansine overnight then 2 Gy): decreased further

Compound: CC(=O)O[C@H]1C(=O)[C@@]2(C)[C@H]([C@H](OC(=O)c3ccccc3)[C@]3(O)C[C@H](OC(=O)[C@H](O)[C@@H](NC(=O)c4ccccc4)c4ccccc4)C(C)=C1C3(C)C)[C@]1(OC(C)=O)CO[C@@H]1C[C@@H]2O [paclitaxel]
- cytotoxic potency, paclitaxel compared with T-DM1 (CAL-27 cells [10]; HER2- CAL-27 cells, 96 hours): more potent than T-DM1

Compound: ado-trastuzumab emtansine [T-DM1]
- tumour regression with T-DM1 and IR (OE19 tumour xenografts; [14]): significantly prolonged tumour regression
- Tumour doubling time in days (mean, 95% CI) (OE19 tumour xenografts; [15]): 66 (33+) days
- Tumour doubling time in days (mean, 95% CI) (OE19 tumour xenografts; 0.25 nmol i.v. day 0, no IR): 11 (8–17) days
- slowing of tumour growth compared with control or trastuzumab (OE19 tumour xenografts; single dose of 1 nmol, by day 14): equally efficacious in slowing tumour growth
- cells in G2/M in tumours (pS10 Histone H3 IHC) (OE19 tumours): increased the number of cells in radiosensitive G2/M phase
- cell cycle profile (G2/M) (HCT116 cells [6]): resembled vehicle-treated cells
- radiosensitization (comet tail length) (OE19 cells [2]; 2 nM T-DM1, irradiated OE19 (HER2+)): radiosensitized
- pIC50 (CAL-27 cells [10]; read-out: IC50 (cell viability), HER2- CAL-27, 72–96 h): < 7.00
- pIC50 (NCI N87 cells): > 9.00
- pIC50 (HCT116 cells [11]): < 7.00
- pIC50 (OE19 cells [12]): > 9.00
- radiosensitization (IR induced DNA double-strand breaks, comet tail length) [9]: restricted radiosensitization of HER2+ cells
- Tumour doubling time in days (mean, 95% CI) (HCT116 tumour xenografts; 0.25 nmol i.v. day 0, +IR 2.5 Gy on days 1, 2 and 3): 7 (5–12) days
- Tumour doubling time in days (mean, 95% CI) (HCT116 tumour xenografts; 0.25 nmol i.v. day 0, no IR): 3 (2–5) days
- benefit of adding T-DM1 to IR (HCT116 tumour xenografts; HER2- HCT116, 0.25 nmol day 0, 2.5 Gy days 1, 2 and 3): no benefit of adding T-DM1 to IR
- cell cycle profile (G2/M) (OE19 cells [4]): blocked OE19 cells in G2/M
- tumour regression with T-DM1 and IR [13, 14]: significantly prolonged tumour regression
- Tumour doubling time in days (mean, 95% CI) [13, 15]: 113 (82–179) days
- Tumour doubling time in days (mean, 95% CI) ([13]; 0.25 nmol i.v. day 0, no IR): 23 (21–25) days
